# Test results taken from ChEMBL document CHEMBL5042492, “Noncovalent CDK12/13 dual inhibitors-based PROTACs degrade CDK12-Cyclin K complex and induce synthetic lethality with PARP inhibitor” (Eur J Med Chem, 2022).
# The source made the active and inactive calls. No cut-off for these calls is given here.
# How the values were obtained:
# [1] = target: T1, Protein cereblon/Cyclin-K/Cyclin-dependent kinase 12 (Homo sapiens, UniProt O75909+Q9NYV4+Q96SW2); test: Protac activity at human CRBN/CDK12/CycK in human Bel-7402 cells assessed as CycK mRNA expression measured after 6 hrs by RT-qPCR method; assay type: cell-based
# [2] = target: T1, Protein cereblon/Cyclin-K/Cyclin-dependent kinase 12; test: Protac activity at human CRBN/CDK12/CycK in human Bel-7402 cells assessed as degradation of GSPT1 upto 30 uM measured after 24 hrs by Western blotting assay; assay type: cell-based; settings: dose microM <=30, time 24.0 hrs
# [3] = target: T1, Protein cereblon/Cyclin-K/Cyclin-dependent kinase 12; test: Protac activity at human CRBN/CDK12/CycK in human MDA-MB-231 cells assessed as degradation of CK1alpha up to 30 uM measured after 24 hrs by Western blotting assay; assay type: cell-based; settings: dose microM <=30, time 24.0 hrs
# [4] = target: T1, Protein cereblon/Cyclin-K/Cyclin-dependent kinase 12; test: Protac activity at human CRBN/CDK12/CycK in human MDA-MB-231 cells assessed as degradation of CDK9 up to 30 uM measured after 24 hrs by Western blotting assay; assay type: cell-based; settings: dose microM <=30, time 24.0 hrs
# [5] = target: T2, Protein cereblon/Cyclin-dependent kinase 13 (Homo sapiens) (UniProt Q14004+Q96SW2); test: Protac activity at human CRBN/CDK13 in human Bel-7402 cells assessed as degradation of CDK13 at 0.1 to 30 uM measured after 24 hrs by Western blotting assay; assay type: cell-based; settings: dose 0.1-30 µM
# [6] = target: T1, Protein cereblon/Cyclin-K/Cyclin-dependent kinase 12; test: Protac activity at human CRBN/CDK12/CycK in human Bel-7402 cells assessed as degradation of CDK9 upto 30 uM measured after 24 hrs by Western blotting assay; assay type: cell-based; settings: dose microM <=30, time 24.0 hrs
# [7] = target: T1, Protein cereblon/Cyclin-K/Cyclin-dependent kinase 12; test: Protac activity at human CRBN/CDK12/CycK in human Bel-7402 cells assessed as degradation of CycK at 1 to 3 uM for 24 hrs in presence of MG132 by Western blotting assay; assay type: cell-based; settings: dose 1-3 µM
# [8] = target: T1, Protein cereblon/Cyclin-K/Cyclin-dependent kinase 12; test: Protac activity at human CRBN/CDK12/CycK in human MDA-MB-231(CRBN/KO) cells assessed as degradation of CDK12 measured after 24 hrs by Western blotting assay; assay type: cell-based
# [9] = target: CDK12/Cyclin K (Homo sapiens, UniProt Q9NYV4); test: Inhibition of human CDK12 (696 to 1082 residues) /cyclinK (1 to 300 residues) using ac-YSPTSPpSYSPTSFpS-YSPTSPpSY-[PEG2]-RR-amid peptide as substrate in presence of ATP measured after 2 hrs by ADP-Glo kinase assay; assay type: protein-complex assay
# [10] = target: T1, Protein cereblon/Cyclin-K/Cyclin-dependent kinase 12; test: Protac activity at human CRBN/CDK12/CycK in human MDA-MB-231 cells assessed as degradation of Cyclin H up to 30 uM measured after 24 hrs by Western blotting assay; assay type: cell-based; settings: dose microM <=30, time 24.0 hrs
# [11] = target: T1, Protein cereblon/Cyclin-K/Cyclin-dependent kinase 12; test: Protac activity at human CRBN/CDK12/CycK in human MDA-MB-231 cells assessed as downregulation of Mcl-1 level upto 30 uM measured after 24 hrs by Western blotting assay; assay type: cell-based; settings: dose microM <=30, time 24.0 hrs
# [12] = system: MDA-MB-231; test: Synergistic antiproliferative activity against human MDA-MB-231 cells in presence of 3 uM of Olaparib at 3 uM measured after 10 days by Chou-Talalay method; assay type: functional; settings: time 10 day
# [13] = target: T1, Protein cereblon/Cyclin-K/Cyclin-dependent kinase 12; test: Protac activity at human CRBN/CDK12/CycK in human MDA-MB-231 cells assessed as degradation of CDK12 at 1 to 3 uM for 24 hrs in presence of MG132 by Western blotting assay; assay type: cell-based; settings: dose 1-3 µM
# [14] = system: MDA-MB-231; test: Synergistic antiproliferative activity against human MDA-MB-231 cells in presence of 1 uM of Olaparib at 3 uM measured after 10 days by Chou-Talalay method; assay type: functional; settings: time 10 day
# [15] = target: T1, Protein cereblon/Cyclin-K/Cyclin-dependent kinase 12; test: Protac activity at human CRBN/CDK12/CycK in human Bel-7402 cells assessed as degradation of Cyclin H upto 30 uM measured after 24 hrs by Western blotting assay; assay type: cell-based; settings: dose microM <=30, time 24.0 hrs
# [16] = target: T1, Protein cereblon/Cyclin-K/Cyclin-dependent kinase 12; test: Protac activity at human CRBN/CDK12/CycK in human Bel-7402 (CRBN/KO) cells assessed as degradation of CDK12 measured after 24 hrs by Western blotting assay; assay type: cell-based
# [17] = target: T1, Protein cereblon/Cyclin-K/Cyclin-dependent kinase 12; test: Protac activity at human CRBN/CDK12/CycK in human MDA-MB-231 cells assessed as CDK12 mRNA expression measured after 6 hrs by RT-qPCR method; assay type: cell-based
# [18] = target: T2, Protein cereblon/Cyclin-dependent kinase 13 (Homo sapiens); test: Protac activity at human CRBN/CDK13 in human MDA-MB-231 cells assessed as degradation of CDK13 at 0.1 to 30 uM measured after 24 hrs by Western blotting assay; assay type: cell-based; settings: dose 0.1-30 µM
# [19] = system: MDA-MB-231; test: Synergistic antiproliferative activity against human MDA-MB-231 cells in presence of 1 uM of Olaparib at 3 uM measured after 10 days by SRB staining based clone formation assay relative to control; assay type: functional; settings: MDA-MB-231, 240 h, time 10 day
# [20] = target: T1, Protein cereblon/Cyclin-K/Cyclin-dependent kinase 12; test: Protac activity at human CRBN/CDK12/CycK in human Bel-7402 cells assessed as CDK12 mRNA expression measured after 6 hrs by RT-qPCR method; assay type: cell-based
# [21] = target: T1, Protein cereblon/Cyclin-K/Cyclin-dependent kinase 12; test: Protac activity at human CRBN/CDK12/CycK in human MDA-MB-231 cells assessed as CycK mRNA expression measured after 6 hrs by RT-qPCR method; assay type: cell-based
# [22] = system: MDA-MB-231; test: Synergistic antiproliferative activity against human MDA-MB-231 cells in presence of 3 uM of Olaparib at 3 uM measured after 10 days by SRB staining based clone formation assay relative to control; assay type: functional; settings: MDA-MB-231, 240 h, time 10 day
# [23] = target: T1, Protein cereblon/Cyclin-K/Cyclin-dependent kinase 12; test: Protac activity at human CRBN/CDK12/CycK in human Bel-7402 cells assessed as RNAP2 CTD Ser2 phosphorylation level at 0.1 to 30 uM measured after 24 hrs by Western blotting assay; assay type: cell-based; settings: dose 0.1-30 µM
# [24] = target: T1, Protein cereblon/Cyclin-K/Cyclin-dependent kinase 12; test: Protac activity at human CRBN/CDK12/CycK in human Bel-7402 cells assessed as degradation of CK1alpha upto 30 uM measured after 24 hrs by Western blotting assay; assay type: cell-based; settings: dose microM <=30, time 24.0 hrs
# T1 sequence (O75909 whole entry, looked up): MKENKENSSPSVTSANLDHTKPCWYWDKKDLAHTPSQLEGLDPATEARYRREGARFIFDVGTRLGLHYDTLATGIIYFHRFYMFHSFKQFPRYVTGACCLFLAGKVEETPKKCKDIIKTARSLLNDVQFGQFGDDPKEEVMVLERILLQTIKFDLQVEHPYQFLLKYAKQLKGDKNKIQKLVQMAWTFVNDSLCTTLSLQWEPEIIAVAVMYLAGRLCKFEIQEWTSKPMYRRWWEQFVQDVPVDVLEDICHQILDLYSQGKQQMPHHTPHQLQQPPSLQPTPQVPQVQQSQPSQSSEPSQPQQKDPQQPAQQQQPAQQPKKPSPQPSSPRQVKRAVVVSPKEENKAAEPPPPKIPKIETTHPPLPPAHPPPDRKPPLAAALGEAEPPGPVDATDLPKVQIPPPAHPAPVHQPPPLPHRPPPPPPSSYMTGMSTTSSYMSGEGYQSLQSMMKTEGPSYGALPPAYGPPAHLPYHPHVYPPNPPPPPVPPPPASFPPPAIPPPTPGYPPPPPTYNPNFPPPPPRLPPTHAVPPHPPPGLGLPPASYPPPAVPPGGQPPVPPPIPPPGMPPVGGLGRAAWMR
# T1 sequence (Q96SW2 whole entry, looked up): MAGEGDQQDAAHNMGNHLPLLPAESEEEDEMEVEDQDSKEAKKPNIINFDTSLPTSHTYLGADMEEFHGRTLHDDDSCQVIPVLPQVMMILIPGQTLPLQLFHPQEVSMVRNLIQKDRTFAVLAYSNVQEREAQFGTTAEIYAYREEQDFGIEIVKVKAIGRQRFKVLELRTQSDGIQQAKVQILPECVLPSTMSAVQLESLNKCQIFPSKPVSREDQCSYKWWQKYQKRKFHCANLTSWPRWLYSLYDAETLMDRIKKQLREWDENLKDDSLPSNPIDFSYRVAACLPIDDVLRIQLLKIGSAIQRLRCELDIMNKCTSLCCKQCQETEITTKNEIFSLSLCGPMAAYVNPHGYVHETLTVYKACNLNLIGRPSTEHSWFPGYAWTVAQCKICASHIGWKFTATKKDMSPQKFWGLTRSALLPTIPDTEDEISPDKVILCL
# T1 sequence (Q9NYV4 whole entry, looked up): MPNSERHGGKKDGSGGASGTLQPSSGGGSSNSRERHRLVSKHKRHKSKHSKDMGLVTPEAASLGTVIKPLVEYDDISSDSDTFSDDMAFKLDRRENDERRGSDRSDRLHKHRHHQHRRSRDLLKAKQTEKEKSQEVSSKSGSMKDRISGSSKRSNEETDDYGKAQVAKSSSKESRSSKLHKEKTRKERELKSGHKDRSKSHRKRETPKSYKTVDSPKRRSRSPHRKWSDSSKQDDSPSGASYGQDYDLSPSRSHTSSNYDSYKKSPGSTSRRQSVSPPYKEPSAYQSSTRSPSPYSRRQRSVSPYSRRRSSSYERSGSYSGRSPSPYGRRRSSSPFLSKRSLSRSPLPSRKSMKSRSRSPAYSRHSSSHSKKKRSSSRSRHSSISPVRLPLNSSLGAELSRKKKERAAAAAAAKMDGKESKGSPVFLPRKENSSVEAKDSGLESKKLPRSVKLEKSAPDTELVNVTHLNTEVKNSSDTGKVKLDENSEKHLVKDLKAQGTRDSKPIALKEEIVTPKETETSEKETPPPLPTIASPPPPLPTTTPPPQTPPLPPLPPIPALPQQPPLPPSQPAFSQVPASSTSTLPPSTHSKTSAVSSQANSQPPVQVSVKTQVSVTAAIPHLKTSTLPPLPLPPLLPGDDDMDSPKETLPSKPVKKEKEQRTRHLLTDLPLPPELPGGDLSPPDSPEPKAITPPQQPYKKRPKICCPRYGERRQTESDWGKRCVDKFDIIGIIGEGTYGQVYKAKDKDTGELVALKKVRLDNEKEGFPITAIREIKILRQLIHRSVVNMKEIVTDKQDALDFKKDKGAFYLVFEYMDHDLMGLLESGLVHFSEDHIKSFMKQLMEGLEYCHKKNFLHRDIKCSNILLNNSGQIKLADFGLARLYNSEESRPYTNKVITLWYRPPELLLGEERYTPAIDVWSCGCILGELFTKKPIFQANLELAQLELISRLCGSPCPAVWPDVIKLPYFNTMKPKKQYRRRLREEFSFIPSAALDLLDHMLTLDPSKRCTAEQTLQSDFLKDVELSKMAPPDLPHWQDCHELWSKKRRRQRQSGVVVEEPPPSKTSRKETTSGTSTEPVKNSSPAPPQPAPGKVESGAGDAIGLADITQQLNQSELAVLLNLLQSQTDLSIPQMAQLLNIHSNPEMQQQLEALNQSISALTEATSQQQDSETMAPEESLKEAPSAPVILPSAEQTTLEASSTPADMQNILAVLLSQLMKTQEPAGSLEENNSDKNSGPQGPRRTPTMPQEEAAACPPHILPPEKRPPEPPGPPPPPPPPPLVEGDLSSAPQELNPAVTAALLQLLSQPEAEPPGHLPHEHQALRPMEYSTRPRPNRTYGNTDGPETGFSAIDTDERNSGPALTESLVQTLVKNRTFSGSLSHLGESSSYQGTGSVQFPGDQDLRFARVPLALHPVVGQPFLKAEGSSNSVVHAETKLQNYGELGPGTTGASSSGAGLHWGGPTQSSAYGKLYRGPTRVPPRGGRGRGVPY
# T2 sequence (Q14004 whole entry, looked up): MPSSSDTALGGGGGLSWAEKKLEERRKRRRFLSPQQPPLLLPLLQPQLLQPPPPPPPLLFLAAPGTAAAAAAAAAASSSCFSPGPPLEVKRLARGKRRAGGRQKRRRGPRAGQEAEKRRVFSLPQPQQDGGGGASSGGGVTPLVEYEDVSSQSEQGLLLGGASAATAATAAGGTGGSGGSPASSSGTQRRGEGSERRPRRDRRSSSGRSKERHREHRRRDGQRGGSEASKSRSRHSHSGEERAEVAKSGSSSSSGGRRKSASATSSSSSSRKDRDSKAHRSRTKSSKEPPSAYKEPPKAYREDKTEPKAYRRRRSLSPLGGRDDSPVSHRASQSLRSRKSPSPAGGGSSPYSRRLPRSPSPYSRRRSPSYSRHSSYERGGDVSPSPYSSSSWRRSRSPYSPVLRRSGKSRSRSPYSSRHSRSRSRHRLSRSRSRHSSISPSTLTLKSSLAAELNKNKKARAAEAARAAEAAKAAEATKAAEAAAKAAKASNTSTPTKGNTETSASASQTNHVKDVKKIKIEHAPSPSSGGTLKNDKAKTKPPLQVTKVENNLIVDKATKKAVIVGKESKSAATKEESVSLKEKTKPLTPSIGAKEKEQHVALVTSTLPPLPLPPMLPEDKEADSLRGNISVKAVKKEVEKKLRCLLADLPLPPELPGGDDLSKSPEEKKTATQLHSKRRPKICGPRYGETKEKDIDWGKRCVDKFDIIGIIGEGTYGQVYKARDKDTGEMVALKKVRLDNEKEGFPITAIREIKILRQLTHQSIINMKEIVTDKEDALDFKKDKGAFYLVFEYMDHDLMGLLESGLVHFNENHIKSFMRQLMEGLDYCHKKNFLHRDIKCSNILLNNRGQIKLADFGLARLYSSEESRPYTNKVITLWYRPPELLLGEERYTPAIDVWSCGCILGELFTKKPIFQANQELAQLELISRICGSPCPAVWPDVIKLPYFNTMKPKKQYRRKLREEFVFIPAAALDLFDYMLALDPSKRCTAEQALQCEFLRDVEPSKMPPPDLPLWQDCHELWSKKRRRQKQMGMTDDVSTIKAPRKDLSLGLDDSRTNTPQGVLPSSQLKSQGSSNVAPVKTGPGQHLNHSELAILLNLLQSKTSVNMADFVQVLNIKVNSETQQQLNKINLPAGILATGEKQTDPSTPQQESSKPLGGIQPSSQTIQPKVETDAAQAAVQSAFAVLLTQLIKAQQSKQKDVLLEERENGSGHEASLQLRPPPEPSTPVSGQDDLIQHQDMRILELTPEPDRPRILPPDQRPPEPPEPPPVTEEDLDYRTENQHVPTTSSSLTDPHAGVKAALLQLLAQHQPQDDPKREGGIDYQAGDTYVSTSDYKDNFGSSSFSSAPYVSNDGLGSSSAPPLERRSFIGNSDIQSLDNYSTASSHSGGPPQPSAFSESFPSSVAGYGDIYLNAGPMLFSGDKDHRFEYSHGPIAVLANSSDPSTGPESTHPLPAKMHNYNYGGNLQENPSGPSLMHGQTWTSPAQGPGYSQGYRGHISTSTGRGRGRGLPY
# T2 sequence (Q96SW2 whole entry, looked up): as the sequence (Q96SW2 whole entry, looked up) above
# Chain of CDK12/Cyclin K (O75909 whole entry, the tested form may be a part): as the sequence (O75909 whole entry, looked up) above
# Chain of CDK12/Cyclin K (Q9NYV4 whole entry, the tested form may be a part): as the sequence (Q9NYV4 whole entry, looked up) above
compound,measurement,setting,value
CC(C)n1cnc2c(NCc3nc4cc(F)c(NCCCCCCCCNC(=O)COc5cccc6c5C(=O)N(C5CCC(=O)NC5=O)C6=O)cc4[nH]3)nc(N3CCOCC3)nc21 (centres undefined),Activity,[1],inactive
same,Activity,[2],inactive
same,Activity,[3],inactive
same,Activity,[4],inactive
same,Activity,[5],Active
same,Activity,[6],inactive
same,Activity,[7],inactive
same,Activity,[8],inactive
same,IC50,[9],645 nM
same,Activity,[10],inactive
same,Activity,[11],inactive
same,CI,[12],0.62
same,Activity,[13],inactive
same,CI,[14],0.29
same,Activity,[15],inactive
same,Activity,[16],inactive
same,Activity,[17],inactive
same,Activity,[18],inactive
same,inhibition at 3 µM,[19],99.2%
same,Activity,[20],inactive
same,Activity,[21],inactive
same,inhibition at 3 µM,[22],99.8%
same,Activity,[23],Active
same,Activity,[24],inactive
